Measured values taken from patent US11236087B2, “Highly active pyrazolo-piperidine substituted indole-2-carboxamides active against the hepatitis B virus (HBV)” (AiCuris GmbH & Co. KG, priority 2017, dated 2022).

What was measured:
HBV = assay: Determination of HBV DNA from the supernatants of HepAD38 cells (anti-HBV activity); type: cell-based, hepatitis B virus; settings: Hepatitis B virus, 144 h; HBV DNA in HepAD38 supernatant, day 6, qPCR; read-out: Cell Activity (EC50)
Summary of the method: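 Supernatant viral DNA was measured by LightCycler qPCR, calibrated with pCH-9/3091 plasmid, 6 days after tetracycline-free HepAD38 cultures received half-log serial compound dilutions; untreated and tetracycline-treated cells served as controls; EC50 was fitted by non-linear regression.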

HBV core protein = molecular target: T1, HBV core protein (UniProt P03146); assay: Biochemical capsid assembly assay (fluorescence quenching); parameters: species or system hepatitis B virus; settings: read-out: Assembly Activity (IC50); BODIPY-FL labelled core protein, 300 μM NaCl, read 6 min after start
T1 construct: fused on or other part: BODIPY-FL maleimide label on the C-terminal Cys150
T1 sequence (P03146 whole entry, looked up, the tested form may be a part): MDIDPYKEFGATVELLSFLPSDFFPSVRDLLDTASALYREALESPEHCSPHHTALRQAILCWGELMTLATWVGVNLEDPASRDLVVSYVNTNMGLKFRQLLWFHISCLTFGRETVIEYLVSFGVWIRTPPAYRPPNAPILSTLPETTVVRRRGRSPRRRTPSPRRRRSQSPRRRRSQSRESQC
Summary of the method: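 Assembly-induced fluorescence quenching (477/525 nm) was measured 6 min after NaCl addition ([…]), against 2.5 M and 0 M NaCl controls. The labelled C150 core dimer (truncated at 149) at 1.0-2.0 μM in HEPES pH 7.5 was tested with eight half-log compound dilutions, top 100, 31.6 or 10 μM. EC50 was obtained by non-linear fit from triplicates run three times.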

[1] = Cell viability assay (AlamarBlue) in HepAD38 cells; settings: human

SMILES | EC50 (HBV) [µM] | IC50 (HBV core protein) [µM] | CC50 at 6 days [1] [µM]
CN(CC(O)C1CC1)C(=O)c1n[nH]c2c1CN(C(=O)c1cc3ccccc3[nH]1)CC2 (stereo not drawn) [Example 256, N-(2-cyclopropyl-2-hydroxyethyl)-5-(1H-indole-2-carbonyl)-N-methyl-1H,4H,5H,6H,7H-pyrazolo[4,3-c]pyridine-3-carboxamide] | < 1 | < 5 | > 10
CON(C)C(=O)c1n[nH]c2c1CN(C(=O)c1cc3ccccc3[nH]1)CC2 [Example 138, 5-(1H-indole-2-carbonyl)-N-methoxy-N-methyl-1H,4H,5H,6H,7H-pyrazolo[4,3-c]pyridine-3-carboxamide] | < 1 | < 5 | > 100
O=C(c1cc2c(Cl)cc(F)cc2[nH]1)N1CCc2[nH]ncc2C1 [Example 142, 4-chloro-6-fluoro-2-{1H,4H,5H,6H,7H-pyrazolo[4,3-c]pyridine-5-carbonyl}-1H-indole] | < 1 | < 5 | > 100
C[C@@H]1CCCCN1C(=O)c1n[nH]c2c1CN(C(=O)c1cc3ccccc3[nH]1)CC2 [Example 148, 2-{3-[(2R)-2-methylpiperidine-1-carbonyl]-1H,4H,5H,6H,7H-pyrazolo[4,3-c]pyridine-5-carbonyl}-1H-indole] | 1 to 25 | 5 to 10 | > 10
Cc1cccc2[nH]c(C(=O)N3CCc4[nH]nc(C(=O)N(C)OCCO)c4C3)cc12 [Example 197, N-(2-hydroxyethoxy)-N-methyl-5-(4-methyl-1H-indole-2-carbonyl)-1H,4H,5H,6H,7H-pyrazolo[4,3-c]pyridine-3-carboxamide] | < 1 | < 5 | > 10
COCCN(C)C(=O)c1n[nH]c2c1CN(C(=O)c1cc3ccccc3[nH]1)CC2 [Example 54, 5-(1H-indole-2-carbonyl)-N-(2-methoxyethyl)-N-methyl-1H,4H,5H,6H,7H-pyrazolo[4,3-c]pyridine-3-carboxamide] | < 1 | < 5 | > 100
CCc1cccc2[nH]c(C(=O)N3CCc4[nH]nc(C56CC(C5)C6)c4C3)cc12 [Example 331, 2-(3-{bicyclo[1.1.1]pentan-1-yl}-1H,4H,5H,6H,7H-pyrazolo[4,3-c]pyridine-5-carbonyl)-4-ethyl-1H-indole] | < 1 | < 5 | > 10
CCOCC1(N(C)C(=O)c2[nH]nc3c2CN(C(=O)c2cc4c(C)cc(F)cc4[nH]2)CC3)CC1 [Example 366, N-[1-(ethoxymethyl)cyclopropyl]-5-(6-fluoro-4-methyl-1H-indole-2-carbonyl)-N-methyl-2H,4H,5H,6H,7H-pyrazolo[4,3-c]pyridine-3-carboxamide] | < 1 | < 5 | > 10
COCCNC(=O)c1n[nH]c2c1CN(C(=O)c1cc3ccccc3[nH]1)CC2 [Example 104, 5-(1H-indole-2-carbonyl)-N-(2-methoxyethyl)-1H,4H,5H,6H,7H-pyrazolo[4,3-c]pyridine-3-carboxamide] | 1 to 25 | < 100 | > 100
CN(CCO)C(=O)c1n[nH]c2c1CN(C(=O)c1cc3cc(F)c(Cl)cc3[nH]1)CC2 [Example 6, 5-(6-chloro-5-fluoro-1H-indole-2-carbonyl)-N-(2-hydroxyethyl)-N-methyl-1H,4H,5H,6H,7H-pyrazolo[4,3-c]pyridine-3-carboxamide] | < 1 | < 5 | > 10
CN(C(=O)c1[nH]nc2c1CN(C(=O)c1cc3c(F)cccc3[nH]1)CC2)C1CC1 [Example 322, N-cyclopropyl-5-(4-fluoro-1H-indole-2-carbonyl)-N-methyl-2H,4H,5H,6H,7H-pyrazolo[4,3-c]pyridine-3-carboxamide] | < 1 | < 5 | > 10
CN(C(=O)c1n[nH]c2c1CN(C(=O)c1cc3c(Cl)cccc3[nH]1)CC2)C1(CO)CC1 [Example 290, 5-(4-chloro-1H-indole-2-carbonyl)-N-[1-(hydroxymethyl)cyclopropyl]-N-methyl-1H,4H,5H,6H,7H-pyrazolo[4,3-c]pyridine-3-carboxamide] | < 1 | < 5 | > 10
CN(OCCO)C(=O)c1n[nH]c2c1CN(C(=O)c1cc3ccccc3[nH]1)CC2 [Example 198, N-(2-hydroxyethoxy)-5-(1H-indole-2-carbonyl)-N-methyl-1H,4H,5H,6H,7H-pyrazolo[4,3-c]pyridine-3-carboxamide] | < 1 | < 5 | > 10
CN(CCO)C(=O)c1n[nH]c2c1CN(C(=O)c1cc3c(F)c(F)c(F)cc3[nH]1)CC2 [Example 8, N-(2-hydroxyethyl)-N-methyl-5-(4,5,6-trifluoro-1H-indole-2-carbonyl)-1H,4H,5H,6H,7H-pyrazolo[4,3-c]pyridine-3-carboxamide] | < 1 | < 5 | > 10
CCOCCN(C)C(=O)c1n[nH]c2c1CN(C(=O)c1cc3ccccc3[nH]1)CC2 [Example 255, N-(2-ethoxyethyl)-5-(1H-indole-2-carbonyl)-N-methyl-1H,4H,5H,6H,7H-pyrazolo[4,3-c]pyridine-3-carboxamide] | < 1 | < 5 | > 10
O=C(c1cc2ccccc2[nH]1)N1CCc2[nH]nc(C(=O)N3CCC(F)(F)CC3)c2C1 [Example 190, 2-[3-(4,4-difluoropiperidine-1-carbonyl)-1H,4H,5H,6H,7H-pyrazolo[4,3-c]pyridine-5-carbonyl]-1H-indole] | < 1 | < 5 | > 10
CC(O)CN(C)C(=O)c1n[nH]c2c1CN(C(=O)c1cc3ccccc3[nH]1)CC2 (stereo not drawn) [Example 41, N-(2-hydroxypropyl)-5-(1H-indole-2-carbonyl)-N-methyl-1H,4H,5H,6H,7H-pyrazolo[4,3-]pyridine-3-carboxamide] | < 1 | < 5 | > 100
COCC1(N(C)C(=O)c2n[nH]c3c2CN(C(=O)c2cc4c(F)cc(F)cc4[nH]2)CC3)CC1 [Example 266, 5-(4,6-difluoro-1H-indole-2-carbonyl)-N-[1-(methoxymethyl)cyclopropyl]-N-methyl-1H,4H,5H,6H,7H-pyrazolo[4,3-c]pyridine-3-carboxamide] | < 1 | < 5 | > 10
CC(O)c1cc(F)cc2[nH]c(C(=O)N3CCc4[nH]nc(C(=O)N(C)CCO)c4C3)cc12 (stereo not drawn) [Example 49, 5-[6-fluoro-4-(1-hydroxyethyl)-1H-indole-2-carbonyl]-N-(2-hydroxyethyl)-N-methyl-1H,4H,5H,6H,7H-pyrazolo[4,3-c]pyridine-3-carboxamide] | < 100 | < 100 | > 100
CN(CC1CCCO1)C(=O)c1n[nH]c2c1CN(C(=O)c1cc3ccccc3[nH]1)CC2 (stereo not drawn) [Example 97, 5-(1H-indole-2-carbonyl)-N-methyl-N-[(oxolan-2-yl)methyl]-1H,4H,5H,6H,7H-pyrazolo[4,3-c]pyridine-3-carboxamide] | < 1 | 5 to 10 | > 100
CN(CCO)C(=O)c1n[nH]c2c1CN(C(=O)c1cc3c(F)cc(F)cc3[nH]1)CC2 [Example 28, 5-(4,6-difluoro-1H-indole-2-carbonyl)-N-(2-hydroxyethyl)-N-methyl-1H,4H,5H,6H,7H-pyrazolo[4,3-c]pyridine-3-carboxamide] | < 1 | < 5 | > 10
O=C(c1cc2ccccc2[nH]1)N1CCc2[nH]nc(C(=O)N3CCCCC3)c2C1 [Example 112, 2-[3-(piperidine-1-carbonyl)-1H,4H,5H,6H,7H-pyrazolo[4,3-c]pyridine-5-carbonyl]-1H-indole] | < 1 | < 5 | > 32
CN(CC(C)(C)O)C(=O)c1n[nH]c2c1CN(C(=O)c1cc3ccccc3[nH]1)CC2 [Example 43, N-(2-hydroxy-2-methylpropyl)-5-(1H-indole-2-carbonyl)-N-methyl-1H,4H,5H,6H,7H-pyrazolo[4,3-c]pyridine-3-carboxamide] | < 1 | 5 to 10 | > 32
CC1(O)CN(C(=O)c2n[nH]c3c2CN(C(=O)c2cc4ccccc4[nH]2)CC3)C1 [Example 34, 1-[5-(1H-indole-2-carbonyl)-1H,4H,5H,6H,7H-pyrazolo[4,3-c]pyridine-3-carbonyl]-3-methylazetidin-3-ol] | < 1 | < 100 | > 15
CCOCC1(N(C)C(=O)c2[nH]nc3c2CN(C(=O)c2cc4c(Cl)cc(F)cc4[nH]2)CC3)CC1 [Example 365, 5-(4-chloro-6-fluoro-1H-indole-2-carbonyl)-N-[1-(ethoxymethyl)cyclopropyl]-N-methyl-2H,4H,5H,6H,7H-pyrazolo[4,3-c]pyridine-3-carboxamide] | < 1 | < 5 | > 10
O=C(NCCCO)c1n[nH]c2c1CN(C(=O)c1cc3ccccc3[nH]1)CC2 [Example 105, N-(3-hydroxypropyl)-5-(1H-indole-2-carbonyl)-1H,4H,5H,6H,7H-pyrazolo[4,3-c]pyridine-3-carboxamide] | 1 to 25 | < 100 | > 100
